# Source: ChEMBL document CHEMBL1122778, “A mechanism for the addition of multiple moles of glutamate by folylpolyglutamate synthetase” (J Med Chem, 1984)
# Assays:
# [1] = biological target: T1, Folylpolyglutamate synthase, mitochondrial (Mus musculus) (UniProt P48760); test: Concentration required go get half the maximal reaction with Folyl-polyglutamate synthase
# T1 sequence (whole entry): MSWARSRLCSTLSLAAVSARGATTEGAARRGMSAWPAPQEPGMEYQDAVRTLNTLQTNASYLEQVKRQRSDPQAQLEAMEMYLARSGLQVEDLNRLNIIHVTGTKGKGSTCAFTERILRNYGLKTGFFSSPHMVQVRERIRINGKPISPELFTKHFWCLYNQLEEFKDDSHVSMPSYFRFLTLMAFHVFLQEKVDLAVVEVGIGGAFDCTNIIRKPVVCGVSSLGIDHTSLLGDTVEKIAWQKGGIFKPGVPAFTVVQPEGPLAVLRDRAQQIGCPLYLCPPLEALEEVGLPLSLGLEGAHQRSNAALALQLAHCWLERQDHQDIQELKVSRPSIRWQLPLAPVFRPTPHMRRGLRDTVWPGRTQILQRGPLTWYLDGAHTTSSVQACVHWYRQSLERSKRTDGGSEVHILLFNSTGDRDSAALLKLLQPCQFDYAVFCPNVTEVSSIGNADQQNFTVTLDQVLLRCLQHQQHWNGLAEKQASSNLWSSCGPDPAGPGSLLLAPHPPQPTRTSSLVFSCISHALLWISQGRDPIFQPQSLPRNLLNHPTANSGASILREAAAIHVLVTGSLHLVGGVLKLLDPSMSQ
# [2] = biological target: T1, Folylpolyglutamate synthase, mitochondrial (Mus musculus); test: Compound was evaluated for reaction rate of compound in mouse liver Folyl-polyglutamate synthase ([3H]L-glutamate incorporated)
# [3] = biological target: T1, Folylpolyglutamate synthase, mitochondrial (Mus musculus); test: Compound was evaluated for reaction rate of compound in mouse liver Folyl-polyglutamate synthase for 1 hr at a conc of 500 uM ([3H]L-glutamate incorporated)
Concentration [1] [µM],Reaction rate [2] [nM/h],Reaction rate [3] [nM/h],Compound
47,1.71,–,CN(Cc1cnc2nc(N)nc(N)c2n1)c1ccc(C(=O)N[C@@H](CCC(=O)O)C(=O)O)cc1
–,1.23,–,CN(Cc1cnc2nc(N)nc(N)c2n1)c1ccc(C(=O)NC(CCC(=O)NC(CCC(=O)O)C(=O)O)C(=O)O)cc1.CN(Cc1cnc2nc(N)nc(N)c2n1)c1ccc(C(=O)NC(CCC(=O)O)C(=O)O)cc1 (stereo not given)
163,–,0.7,CN(Cc1cnc2nc(N)nc(N)c2n1)c1ccc(C(=O)NC(CCC(=O)NC(CCC(=O)O)C(=O)O)C(=O)O)cc1 (stereo not given)
